Experimental data from ChEMBL document CHEMBL1201862, “PubChem BioAssay data set” (2004).
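Results reflect a 48-hour exposure of cells in 96-well plates to compound at five concentrations. GI50 = concentration required for 50% inhibition of growth.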 Calls of active or inactive are those of the source. No stated cut-off is given here; in the data, active = GI50 up to about 1.1 µM and inactive = higher.

Experiments:
Assay in all cases: NCI tumour cell line growth inhibition, 48 h
COLO 205 = system: COLO 205
NCI-H460 = system: NCI-H460
SW-620 = system: SW-620
Hs-578T = system: Hs-578T
SF-539 = system: SF-539
SK-OV-3 = system: SK-OV-3
RXF 393 = system: RXF 393
SNB-19 = system: SNB-19
OVCAR-8 = system: OVCAR-8
786-0 = system: 786-0
T47D = system: T47D
MDA-MB-435 = system: MDA-MB-435
OVCAR-4 = system: OVCAR-4
PC-3 = system: PC-3
HT-29 = system: HT-29
K562 = system: K562
OVCAR-3 = system: OVCAR-3
CCRF-CEM = system: CCRF-CEM
NCI-H23 = system: NCI-H23
Malme-3M = system: Malme-3M
CAKI-1 = system: CAKI-1
BT-549 = system: BT-549
IGROV-1 = system: IGROV-1
SF-268 = system: SF-268
SR = system: SR
SK-MEL-2 = system: SK-MEL-2
SK-MEL-28 = system: SK-MEL-28
EKVX = system: EKVX
MDA-N = system: MDA-N
SNB-75 = system: SNB-75
NCI-H226 = system: NCI-H226
KM12 = system: KM12
UACC-62 = system: UACC-62
HCT-15 = system: HCT-15
U-251 = system: U-251
M14 = system: M14
MDA-MB-231 = system: MDA-MB-231
SK-MEL-5 = system: SK-MEL-5
UO-31 = system: UO-31
HCT-116 = system: HCT-116
A498 = system: A498
UACC-257 = system: UACC-257
DU-145 = system: DU-145
SN12C = system: SN12C
ACHN = system: ACHN
RPMI-8226 = system: RPMI-8226
MOLT-4 = system: MOLT-4
LOX IMVI = system: LOX IMVI
NCI/ADR-RES = system: NCI/ADR-RES
SF-295 = system: SF-295
MCF7 = system: MCF7
TK-10 = system: TK-10
A549 = system: A549
HOP-62 = system: HOP-62
HCC 2998 = system: HCC 2998
OVCAR-5 = system: OVCAR-5
NCI-H522 = system: NCI-H522
HOP-92 = system: HOP-92

For `Cc1cccc(Cn2c3c(c4cc(O)ccc42)C(=O)c2ccccc2C3=O)c1`, the GI50 (COLO 205) was > 78.2 µM (inactive), the GI50 (NCI-H460) was 25.6 µM (inactive) and the GI50 (SW-620) was 31 µM (inactive). For the same compound, the GI50 (Hs-578T) was 24.4 µM (inactive), the GI50 (SF-539) was 5.7 µM (inactive) and the GI50 (SK-OV-3) was 3.44 µM (inactive). For the same compound, the GI50 (RXF 393) was 5.6 µM (inactive), the GI50 (SNB-19) was 28 µM (inactive) and the GI50 (OVCAR-8) was 5.57 µM (inactive). The GI50 (786-0) was 3.86 µM (inactive), the GI50 (T47D) was > 100 µM (inactive) and the GI50 (MDA-MB-435) was > 80.9 µM (inactive). The GI50 (OVCAR-4) was 1.88 µM (inactive), the GI50 (PC-3) was 6.27 µM (inactive) and the GI50 (HT-29) was > 58.5 µM (inactive). The GI50 (K562) was > 100 µM (inactive), the GI50 (OVCAR-3) was > 31.6 µM (inactive) and the GI50 (CCRF-CEM) was 28.1 µM (inactive). The GI50 (NCI-H23) was 15.4 µM (inactive), the GI50 (Malme-3M) was 19.1 µM (inactive) and the GI50 (CAKI-1) was > 26.5 µM (inactive). For the same compound, the GI50 (BT-549) was 24.3 µM (inactive), the GI50 (IGROV-1) was 5.13 µM (inactive) and the GI50 (SF-268) was 36.6 µM (inactive). The GI50 (SR) was 14.2 µM (inactive), the GI50 (SK-MEL-2) was > 91.2 µM (inactive) and the GI50 (SK-MEL-28) was > 39.6 µM (inactive). For the same compound, the GI50 (EKVX) was 3.95 µM (inactive), the GI50 (MDA-N) was 68.4 µM (inactive) and the GI50 (SNB-75) was 1.97 µM (inactive). For the same compound, the GI50 (NCI-H226) was 15.7 µM (inactive), the GI50 (KM12) was 41.2 µM (inactive) and the GI50 (UACC-62) was 11.1 µM (inactive). For the same compound, the GI50 (HCT-15) was 54.7 µM, the GI50 (U-251) was 8.59 µM (inactive) and the GI50 (M14) was > 100 µM (inactive). The GI50 (MDA-MB-231) was 6.35 µM (inactive), the GI50 (SK-MEL-5) was 18.3 µM (inactive) and the GI50 (UO-31) was > 54.2 µM (inactive). The GI50 (HCT-116) was 3.05 µM (inactive), the GI50 (A498) was > 90.8 µM (inactive) and the GI50 (UACC-257) was > 100 µM (inactive). For the same compound, the GI50 (DU-145) was > 100 µM (inactive), the GI50 (SN12C) was > 61 µM (inactive) and the GI50 (ACHN) was 13.3 µM (inactive). For the same compound, the GI50 (RPMI-8226) was 5.92 µM (inactive), the GI50 (MOLT-4) was > 83.6 µM (inactive) and the GI50 (LOX IMVI) was 12.6 µM (inactive). For the same compound, the GI50 (NCI/ADR-RES) was 6.84 µM (inactive), the GI50 (SF-295) was 3.89 µM (inactive) and the GI50 (MCF7) was 23.2 µM (inactive). For the same compound, the GI50 (TK-10) was 15.5 µM (inactive), the GI50 (A549) was 11.3 µM (inactive) and the GI50 (HOP-62) was 4.58 µM (inactive).

With `N#Cc1nc(CCCCCN2C(=O)c3ccccc3C2=O)oc1N` the GI50 (COLO 205) was > 100 µM (inactive), the GI50 (NCI-H460) was > 100 µM (inactive) and the GI50 (SW-620) was > 100 µM (inactive). For the same compound, the GI50 (Hs-578T) was > 100 µM (inactive), the GI50 (HCC 2998) was 16.3 µM (inactive) and the GI50 (SF-539) was > 100 µM (inactive). The GI50 (SK-OV-3) was > 100 µM (inactive), the GI50 (RXF 393) was > 100 µM (inactive) and the GI50 (SNB-19) was > 100 µM (inactive). The GI50 (OVCAR-8) was > 100 µM (inactive), the GI50 (786-0) was > 100 µM (inactive) and the GI50 (T47D) was > 100 µM (inactive). For the same compound, the GI50 (MDA-MB-435) was > 100 µM (inactive), the GI50 (OVCAR-4) was > 100 µM (inactive) and the GI50 (PC-3) was > 100 µM (inactive). The GI50 (HT-29) was > 100 µM (inactive), the GI50 (K562) was 17 µM (inactive) and the GI50 (OVCAR-3) was > 100 µM (inactive). The GI50 (CCRF-CEM) was 1.91 µM (inactive), the GI50 (OVCAR-5) was > 100 µM (inactive) and the GI50 (NCI-H23) was > 100 µM (inactive). For the same compound, the GI50 (Malme-3M) was > 100 µM (inactive), the GI50 (CAKI-1) was > 100 µM (inactive) and the GI50 (BT-549) was 25.7 µM (inactive). The GI50 (IGROV-1) was > 100 µM (inactive), the GI50 (SF-268) was > 100 µM (inactive) and the GI50 (SR) was > 100 µM (inactive). For the same compound, the GI50 (SK-MEL-2) was > 100 µM (inactive), the GI50 (SK-MEL-28) was > 100 µM (inactive) and the GI50 (EKVX) was > 100 µM (inactive). For the same compound, the GI50 (MDA-N) was > 100 µM (inactive), the GI50 (NCI-H226) was > 100 µM (inactive) and the GI50 (KM12) was > 100 µM (inactive). For the same compound, the GI50 (HCT-15) was greater than 100 µM, the GI50 (U-251) was > 100 µM (inactive) and the GI50 (M14) was > 100 µM (inactive). For the same compound, the GI50 (MDA-MB-231) was > 100 µM (inactive), the GI50 (SK-MEL-5) was > 100 µM (inactive) and the GI50 (UO-31) was 94.4 µM (inactive). The GI50 (HCT-116) was > 100 µM (inactive), the GI50 (NCI-H522) was 4.84 µM (inactive) and the GI50 (UACC-257) was > 100 µM (inactive). For the same compound, the GI50 (DU-145) was > 100 µM (inactive), the GI50 (SN12C) was > 100 µM (inactive) and the GI50 (ACHN) was > 100 µM (inactive). The GI50 (RPMI-8226) was 21.1 µM (inactive), the GI50 (MOLT-4) was 75.7 µM (inactive) and the GI50 (LOX IMVI) was > 100 µM (inactive). The GI50 (NCI/ADR-RES) was > 100 µM (inactive), the GI50 (SF-295) was > 100 µM (inactive) and the GI50 (MCF7) was > 100 µM (inactive). The GI50 (TK-10) was > 100 µM (inactive), the GI50 (A549) was > 100 µM (inactive) and the GI50 (HOP-62) was > 100 µM (inactive).

With `Cn1c2ccccc2c(=S)c2ccccc21` the GI50 (COLO 205) was > 100 µM (inactive), the GI50 (NCI-H460) was > 100 µM (inactive) and the GI50 (SW-620) was > 100 µM (inactive). For the same compound, the GI50 (Hs-578T) was > 100 µM (inactive), the GI50 (HCC 2998) was > 100 µM (inactive) and the GI50 (SF-539) was > 100 µM (inactive). For the same compound, the GI50 (SK-OV-3) was > 100 µM (inactive), the GI50 (RXF 393) was > 100 µM (inactive) and the GI50 (SNB-19) was > 100 µM (inactive). For the same compound, the GI50 (OVCAR-8) was > 100 µM (inactive), the GI50 (786-0) was > 100 µM (inactive) and the GI50 (T47D) was > 100 µM (inactive). The GI50 (MDA-MB-435) was > 100 µM (inactive), the GI50 (PC-3) was > 100 µM (inactive) and the GI50 (HT-29) was > 100 µM (inactive). The GI50 (K562) was > 100 µM (inactive), the GI50 (OVCAR-3) was > 100 µM (inactive) and the GI50 (CCRF-CEM) was > 100 µM (inactive). The GI50 (OVCAR-5) was > 100 µM (inactive), the GI50 (NCI-H23) was > 100 µM (inactive) and the GI50 (CAKI-1) was > 100 µM (inactive). The GI50 (BT-549) was > 100 µM (inactive), the GI50 (IGROV-1) was > 100 µM (inactive) and the GI50 (SF-268) was > 100 µM (inactive). The GI50 (SR) was > 100 µM (inactive), the GI50 (SK-MEL-2) was > 100 µM (inactive) and the GI50 (SK-MEL-28) was > 100 µM (inactive). The GI50 (EKVX) was > 100 µM (inactive), the GI50 (MDA-N) was > 100 µM (inactive) and the GI50 (SNB-75) was > 100 µM (inactive). The GI50 (NCI-H226) was > 100 µM (inactive), the GI50 (KM12) was > 100 µM (inactive) and the GI50 (UACC-62) was > 100 µM (inactive). For the same compound, the GI50 (HCT-15) was greater than 100 µM, the GI50 (U-251) was > 100 µM (inactive) and the GI50 (M14) was > 100 µM (inactive). For the same compound, the GI50 (MDA-MB-231) was > 100 µM (inactive), the GI50 (SK-MEL-5) was > 100 µM (inactive) and the GI50 (UO-31) was > 100 µM (inactive). For the same compound, the GI50 (HCT-116) was > 100 µM (inactive), the GI50 (NCI-H522) was > 100 µM (inactive) and the GI50 (A498) was > 100 µM (inactive). For the same compound, the GI50 (UACC-257) was > 100 µM (inactive), the GI50 (DU-145) was > 100 µM (inactive) and the GI50 (SN12C) was > 100 µM (inactive). The GI50 (ACHN) was > 100 µM (inactive), the GI50 (HOP-92) was > 100 µM (inactive) and the GI50 (RPMI-8226) was > 100 µM (inactive). The GI50 (MOLT-4) was > 100 µM (inactive), the GI50 (LOX IMVI) was > 100 µM (inactive) and the GI50 (NCI/ADR-RES) was > 100 µM (inactive). The GI50 (SF-295) was > 100 µM (inactive), the GI50 (MCF7) was > 100 µM (inactive) and the GI50 (TK-10) was > 100 µM (inactive). The GI50 (A549) was > 100 µM (inactive) and the GI50 (HOP-62) was > 100 µM (inactive).
